Test results reported in patent publication US6228870A, “Oxazolidinones useful as alpha 1a adrenoceptor antagonists” (Merck & Co., Inc., priority 1999, dated 2001).

System: human alpha 1b adrenergic receptor
Test: Selective Binding Assay, alpha 1b (competition with [125I]-HEAT)
Settings: alpha 1a versus alpha 1b
Method: Membranes prepared from stably transfected human alpha 1d and alpha 1b cell lines (ATCC […] and CRL 11139, respectively) were used to identify compounds that selectively bind to the human alpha 1a adrenergic receptor. These competition binding) reactions (total volume=200 μl) contained 50 mM Tris-HCl pH. 7.4, 5 mM EDTA, 150 mM NaCl, 100 pM [^125 I]-HEAT, membranes prepared from cell lines transfected with the respective alpha 1 subtype expression plasmid and increasing amounts of unlabeled ligand. Reactions were incubated at room temperature for one hour with shaking. Reactions were filtered onto Whatman GF/C glass fiber filters with a Inotec 96 well cell harvester. Filters were washed three times with ice cold buffer and bound radioactivity was determined (Ki).

Structure (SMILES) | selectivity in binding to alpha 1a receptors versus alpha 1b receptors
COC[C@@H]1OC(=O)N(C(=O)NCCCN2CCC(c3ccccc3C#N)CC2)[C@H]1c1ccc(F)c(F)c1 [Example 11, (4S,5R)-4-(3,4-Difluorophenyl)-5-methoxymethyl-2-oxo-oxazolidine-3-carboxylic acid {3-[4-(2-cyanophenyl)piperidin-1-yl]propyl}amide] | about 184 fold
COC[C@@H]1OC(=O)N(C(=O)NCCCN2CCC(c3ccc(F)cc3C#N)CC2)[C@H]1c1ccc(F)c(F)c1 [Example 13, (4S,5R)-4-(3,4-Difluorophenyl)-5-methoxymethyl-2-oxo-oxazolidine-3-carboxylic acid {3-[4-(2-cyano-4-fluorophenyl)piperidin-1-yl]propyl}amide] | about 453 fold
